Consider 2 molecules from patent US10918687B2, “Kava derived therapeutic compounds and methods of use thereof” (KUALITY HERBCEUTICS LLC, priority 2013, dated 2021).

Data set [1] deals with NNK-induced DNA damage in liver tissues. Briefly: NNK-induced DNA damage in A/J mouse liver tissues. The data set is classed as in vivo, A/J mice. As to conditions: diet Day 1-Day 7, 24 h after NNK; data not shown. As for the experimental part:
DNA was isolated and purified from ˜100 mg lung and liver tissues of each mouse, following Genomic-tip 100/G protocol from Qiagen Corp (Valencia, Calif.).
(§1) After one-week acclimation, A/J mice were weighed and randomized into ten groups (3 mice per group except for Group 1 that had one mouse as the negative control) and switched to the AIN-93 G diet on a date defined as Day 1. Mice in Groups 1 and 2 were given the AIN-93 G diet during Day 1-Day 7. Mice in Groups 3-10 were given the AIN-93 G diets supplemented with kava, (+)-DHK, (+)-DHM, and synthetic (±)-DHM respectively at the specified dose during Day 1-Day 7. Mice in Groups 2-10 were given a single dose of NNK at 100 mg/kg bodyweight in saline (0.1 ml) via i.p. injection at the beginning of Day 7 while the mouse in Group 1 was given saline (0.1 ml). Mice were euthanized by CO2 overdosing 24 h after NNK treatment, and lung and liver tissues were collected and stored at −80° C. until DNA isolation. A set of NNK-induced DNA adducts (O^6-mG, 7-mG, 7-pobG, O^6-pobdG, O^2-pobdT, 7-phbG, O^6-phbdG and O^2-phbdT) were quantified by following reported procedures (Leitzman, P et al. (2014) Cancer. Prev. Res., 7: 86-96; Peterson, L A et al. (2013) Chem. Res. Toxicol. 26: 1464-1473; Upadhyaya, P et al. (2008) Chem. Res. Toxicol. 21: 1468-1476). For 7-mG isolation, DNA (30 μg) was dissolved in 10 mM sodium phosphate buffer, pH 7 (500 μL) and spiked with [^13C1^2H3]7-mG (10 pmol). Samples were heated to 80° C. for 30 minutes. An aliquot (100 μL) was removed for 7-mG analysis.

The test system of data set [2] is NNK-induced DNA adducts in lung tissues. Briefly: NNK-induced DNA adducts in A/J mouse lung tissues (LC-ESI-MS/MS). The data set is classed as in vivo, A/J mice. Conditions: 24 h after NNK; for minimum chemopreventive (effective) dose estimated from DNA adduct reduction: dose-response of O^6-mG reduction in lung.
Excerpt: DNA was isolated from the whole lung tissue of each individual mouse following Puregene DNA isolation protocol (Qiagen Corp, Valencia, Calif.) (Urban et al., Chem Res Toxicol 2012; 25:2167-78). 7-pobG, O^2-pobdT, O^6-pobdG, and O^6-mG were quantified by LC-ESI-MS/MS, following established protocols (Urban et al., Chem Res Toxicol 2012; 25:2167-78; Peterson et al., Cancer Res 1991; 51:5557-64).
After one-week acclimation, A/J mice were weighed and randomized into seven groups (3 mice per group) and switched to the AIN-93 G diet on a date defined as Day 1. Mice in Groups 1 and 2 were given the AIN-93 G diet during Day 1-Day 7. Mice in Groups 3-7 were given the AIN-93 G diet supplemented with desmethoxyyangonin, (+)-DHK, (+)-kavain, (+)-DHM, or (+)-methysticin respectively, at a dose of 1 mg/g of diet during Day 1-Day 7. Mice in Groups 2-7 were given a single dose of NNK at 100 mg/kg bodyweight in saline (0.1 ml) via intraperitoneal (i.p.) injection at the beginning of Day 7 while mice in Group 1 were given saline (0.1 ml). Mice were euthanized by CO2 overdosing 24 h after NNK treatment, and lung tissues were collected and stored at −80° C. until DNA isolation. A number of NNK-induced DNA modifications (O^6-mG, 7-pobG, O^6-pobdG and O^2-pobdT) were quantified by following a reported procedure (Leitzman, P et al. (2014) Cancer. Prev. Res., 7: 86-96).
as §1

For data set [3], the system named is BaP-induced DNA damage in hepe1c1c7 cells. Briefly: BaP-induced DNA damage in hepe1c1c7 cells. Conditions: 1, 5 and 25 μM co-treated with BaP (0.3 μM) for 3 hours. Format: cell-based, rodent. The text has this: (§2) The goal of this study was to explore the potential scope of dihydromethysticin in blocking/reducing different carcinogen-induced DNA damage and detoxifying such carcinogens. […] Benzo(a)pyrene (BaP) is a representative polyaromatic hydrocarbon-based carcinogen in cigarette smoke and is present in various industrial/motor exhaust/waste. BaP is a human carcinogen to lung, stomach and other tissues. A rodent liver cancer cell line was used in these studies. Briefly, the hepe1c1c7 cells were co-treated with dihydromethysticin (1, 5, and 25 μM) and PhIP (10 μM) for 24 hours with DNA isolated and PhIP-based DNA damage quantified (FIG. 28A). […] Similarly the cells were co-treated with dihydromethysticin (1, 5, and 25 μM) and BaP (0.3 μM) for 3 hours with DNA isolated and BaP-based DNA damage quantified (FIG. 28B).

The test system of data set [4] is APAP-induced hepatotoxicity. Briefly: Short-term combination study: potentiation of APAP-induced hepatotoxicity in C57BL/6 mice. Conditions: 3-day daily gavage, DHM 37.5 mg/kg, FKB 11.5 mg/kg.
Excerpt: Six week-old female C57BL/6J mice (Jackson Laboratories, ME) were housed at specific pathogen-free animal facilities of Research Animal Resources, University of Minnesota with free access to standard rodent food and water. All mice were acclimatized for one week before being used for experiments. Mice were gavaged with dose formulations at the indicated doses and times, euthanized by CO2 overdosing with necropsy performed by experienced researchers.
The short-term combination studies were designed to evaluate the potential synergism of kava and its chemicals to APAP induced hepatotoxicity. C57BL/6 mice were randomized (8-15 mice per group) and were administered with PEG-400 (200 μL), kava (500 mg/kg bodyweight), DHM or FKA and FKB in PEG-400 (200 μL) at the indicated doses daily via oral gavage for two days. On the third day, mice in the respective groups were co-administered with APAP (800 mg/kg bodyweight) in PEG-400 (200 μL). Bodyweight was recorded daily. Necropsies were performed 24 hours after the last gavage by experienced researchers. Serum from each mouse was analyzed for ALT and AST. Livers were collected and preserved in 10% neutral buffered formalin. Appropriately fixed tissues were processed into paraffin blocks using standard histological techniques, and 5 μm sections were cut and stained with hematoxylin and eosin (H&E).
The clinical chemistry data were reported as mean±SD (n=4-15). […] One-way analysis of variance (ANOVA) was used to compare the means among different groups in the short-term combination studies. Dunnett's test was used for comparisons of APAP and other treatment groups when the one-way ANOVA analysis was statistically significant. p-value≤0.05 was considered statistically significant. All analyses were conducted in GraphPad Prism 4 (GraphPad Software, Inc. La Jolla, Calif.).
In data set [5] the test system is human lung H2009 cancer cell line tumors. As to the kind of experiment: H2009 human lung cancer xenograft in nude mice. The data set is classed as in vivo. Conditions: 40 mg/kg bodyweight via i.p. injection or oral gavage. Here is the method: Typically human origin lung cancer cells were cultured and mixed with Metrigel. 2-5×10^6 cells were inoculated in the nude mice. Mice were randomized into different groups when the tumor size reached ˜50 mm^3. Treated mice received drug candidate at a dose of 40 mg/kg bodyweight via i.p. injection or oral gavage. The tumor size was monitored once or twice a week until 5 weeks since the treatment or when the size of the tumors >1000 mm^3. Mouse bodyweight was monitored once a week. Mice were CO^2 euthanized and the tumors were collected and weighed. Major organs were grossly examined and weighed as well.
(A xenograft is tissue or cells of one species grown in another, often human tumour cells in immunodeficient mice.)

Data set [6] has as its system PhIP-induced DNA damage in hepe1c1c7 cells. As to the kind of experiment: PhIP-induced DNA damage in hepe1c1c7 cells. The data set is classed as cell-based, rodent. Conditions: 1, 5 and 25 μM co-treated with PhIP (10 μM) for 24 hours.
Excerpt: as §2

The mark [7] stands for this setting: 1, 0.25, 0.1 and 0.01 mg/g of diet.
Setting [8] is: kava 5 and 1.25 mg/g, (+)-DHM 1, 0.25, 0.1 and 0.01 mg/g of diet.

Regarding `COC1=CC(=O)O[C@@H](CCc2ccc3c(c2)OCO3)C1` [(+)-DHM, (+)-dihydromethysticin], the “effect on NNK-induced DNA damage in the liver tissues” value in data set [1] is given as “none of the treatments had significant effects”. The “effect on O^6-mG” value in data set [2] (0.01 mg/g of diet) is listed as “no effect”. Also, in data set [2] (0.1 mg/g of diet), the “extent of reduction in O^6-mG” value is “comparable to that induced by kava at a dose of 1.25 mg/g of diet”. Besides, in data set [2] (setting [7]), the “effect on 7-mG” value is recorded as “dose-dependently reduced” and the “effect on PHB adducts (7-phbG, O^6-phbdG, O^2-phbdT)” value is “dose-dependently reduced”. For the same molecule, the “minimum chemopreventive (effective) dose estimated from DNA adduct reduction” value in data set [2] was 0.01-0.1 mg/g of diet. Further, the “effect on NNK-induced O^6-mG” value in data set [2] (isolated kavalactones 1 mg/g of diet Day 1-Day 7) is “significantly reduced”. In data set [2] (setting [8]), the “effect on O^6-mG, dose-response” value is “preferentially and dose-dependently reduced”; the “effect on POB adducts, dose-response” value is given as “weaker effects”.
Turning to `COC1=CC(=O)O[C@@H](CCc2ccc3c(c2)OCO3)C1` [DHM, dihydromethysticin], the “BaP-induced DNA damage” value in data set [3] was “effectively and dose-dependently reduced”. Further, the “minimum chemopreventive (effective) dose estimated from DNA adduct reduction” value in data set [2] is 0.01-0.1 mg/g of diet. Further, in data set [4] (APAP 800 mg/kg on third day, FKA and FKB 1, 2, 4 times abundance), the “serum ALT and AST when combined with APAP, vs APAP alone” value is listed as “no effect”. In addition, in data set [4] (kava 500 mg/kg, FKA and FKB at 1, 2 and 4 times their abundance in kava 500 mg/kg), the “serum ALT and AST, treatment alone (without APAP)” value is listed as “no effect”. Moreover, the “tumor volume relative to control group” value in data set [5] is “significantly reduced”. Also, the “PhIP-induced DNA damage” value in data set [6] is “effectively and dose-dependently reduced”.
